Test results taken from patent US11311593B2, “Root extracts from plants of the Morus genus and uses of same” (PLANT ADVANCED TECHNOLOGIES PAT, priority 2017, dated 2022).

Key:
[1] = system: collagenase obtained from Clostridium Histolyticum; experiment: Target Binding affinity test for collagenase; conditions: ligands in non-stimulated M. alba root extract; moracenin B = reference ligand
Method: A root extract of Morus alba was prepared in accordance with the protocol described in Example 2.1. The Target Binding® method used was that of Example 2.3 which is described in patent application FR 1 670 545. The experimental protocol was as follows:
The target, a 6.25 mg/mL solution of collagenase obtained from Clostridium histolyticum, was prepared by dissolving lyophilized enzyme powder in 50 mM saline phosphate buffer with a pH of 7.5. The sample to be analyzed corresponded to the supernatant of the root extract obtained in accordance with Example 2.1. It could be centrifuged once again before use, at 21000 g for 15 min, in order to remove any traces of solid particles. A reference sample was also prepared by diluting the sample to be analyzed 10-fold in a solution of water and a quarter of the volume of acetonitrile.
1. Preconditioning step—Wells with a filtering membrane were preconditioned with a volume of 500 μL of a saline phosphate buffer which was passed through the membrane by centrifuging at 14000 g for 60 seconds.
2. Binding step—A volume of 92.5 μL of the solution obtained from the pretreatment step was mixed with 7.5 μL of the sample to be analyzed for 10 min in a plastic Eppendorf tube.
3. Washing step—The mixture of the enzyme and the sample to be analyzed was deposited in a well that had been preconditioned in the preconditioning step, then centrifuged at 14000 g until most of the solvent had been eliminated. The enzyme-ligand complexes remained on the surface of the filter membrane, then were re-suspended in a volume of 100 μL of the same saline phosphate buffer solution and centrifuged at 14000 g until the solvent had been eliminated. This procedure was repeated three times and eliminated all of the compounds that were not bound to the enzyme. 4. Separation step—The enzyme-ligand complexes retained in the filter were re-suspended in a volume of 10 μL of ultra-pure water then mixed with a volume of 30 μL of acetonitrile in order to denature and precipitate the enzyme and, at the same time, to liberate the ligands. The mixture was centrifuged at 21000 g for 10 min in order to separate the precipitate from the supernatant. 5. Analysis step—Said supernatant was analyzed by liquid phase chromatography coupled to a mass spectrometer. The reference sample was also analyzed in the same manner, using the same analytical conditions.
The UPLC-MS analysis was carried out in accordance with the protocol described in Example 1.

fungal tyrosinase = experiment: Anti-tyrosinase inhibiting activity, L-tyrosine as substrate, dopachrome at 475 nm; type: biochemical
Method: Morus alba plants were cultivated aeroponically for 8 weeks with a 15/10/30 (N/P/K) culture medium and with an electroconductivity in the range 1.0 and 1.2 mS/cm. The roots were chopped, dried, crushed and macerated in pure ethanol in a ratio of 1 mL of ethanol for 20 mg dry matter in accordance with the protocol described in Example 1. The sample was centrifuged at 21000 g for 10 minutes in order to separate the solid material. The anti-tyrosinase inhibiting activity of the supernatant was measured using L-tyrosine as the substrate. Tyrosinase catalyzes the conversion of L-tyrosine to dopaquinone, which is spontaneously converted into dopachrome. This latter absorbs strongly in the visible range of the electromagnetic spectrum (at 475 nm). The activity of the tyrosinase was measured by following the enzymatic conversion of the colorless L-tyrosine into orange dopachrome with the aid of a microplate reader.
The anti-tyrosinase activity of the supernatant was measured by mixing the following components: 150 μL of the solution of L-tyrosine (1.5 mM) in 50 mM sodium phosphate buffer, pH 6.8; 40 μL of supernatant diluted 2- to 800-fold in ethanol was tested as the inhibitor solution. The enzymatic conversion was initialized by adding a volume of 10 μL of fungal tyrosinase (0.2 mg/mL in a 50 mM sodium phosphate buffer, pH 6.8). The “control” experiment was carried out in the same manner, replacing the supernatant with pure ethanol.
Two root extracts of Morus alba were prepared in accordance with the protocol described in Example 1. The measurement of the anti-tyrosinase inhibiting activity was carried out in accordance with the protocol described in Example 2.1 with 40 μL of each of the two extracts diluted 100-fold or 200-fold in pure ethanol.
The measurement of the anti-tyrosinase inhibiting activity was carried out in accordance with the protocol described in Example 2.1.

CC(C)=CCc1c(O)ccc(C(=O)[C@@H]2CC(C)=C[C@H](c3c(O)cc(O)c4c(=O)c(CC=C(C)C)c(-c5ccc(O)cc5O)oc34)[C@H]2c2ccc(O)cc2O)c1O [Moracenin A, moracenin A]
Relative affinity (RA) for collagenase [1]: 1.1
% inhibition of tyrosinase (fungal tyrosinase; purified compound, 2.5 μM): 18.9%
% inhibition of tyrosinase (fungal tyrosinase; purified compound, 5 μM): 27.7%
% inhibition of tyrosinase (fungal tyrosinase; purified compound, 20 μM): 59.0%

CC(C)=CCc1c(-c2ccc(O)cc2O)oc2c([C@H]3C=C(C)C[C@H](C(=O)c4ccc(O)cc4O)[C@@H]3c3ccc(O)cc3O)c(O)cc(O)c2c1=O [Moracenin B, moracenin B]
Relative affinity (RA) for collagenase [1]: 1.0
% inhibition of tyrosinase (fungal tyrosinase; purified compound, 2.5 μM): 22.6%
% inhibition of tyrosinase (fungal tyrosinase; purified compound, 5 μM): 33.5%
% inhibition of tyrosinase (fungal tyrosinase; purified compound, 20 μM): 69.7%

CC(C)=CCc1c(O)ccc(C(=O)C2C(c3ccc(O)cc3O)CC3(C)CC2c2c(O)cc(-c4cc5ccc(O)cc5o4)cc2O3)c1O (centres unmarked) [Wittiorumin F, wittiorumin F]
Relative affinity (RA) for collagenase [1]: 1.1
rank of tyrosinase inhibiting activity among the 4 purified compounds (in words) (fungal tyrosinase; 2.5, 5 and 20 μM): best inhibiting activity
% inhibition of tyrosinase (fungal tyrosinase; purified compound, 2.5 μM): 35.7%
% inhibition of tyrosinase (fungal tyrosinase; purified compound, 5 μM): 52.9%
% inhibition of tyrosinase (fungal tyrosinase; purified compound, 20 μM): 75.1%
inhibition of tyrosinase (fungal tyrosinase; purified compound, 3.2 mg/L): 52.9%
